# Assay: Log P by HPLC on reversed phase columns (EEC directive 79/831 Annex V.A8; methods [a], [b], [c])
# Assay type: physicochemical
# Conditions: not given
# In short: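 Reversed-phase HPLC with LC-UV detection, 10→95% acetonitrile linear gradient; aqueous eluent 0.1% formic acid [a], 0.001 M ammonium acetate, neutral [b], or 0.1% phosphoric acid [c]. Calibrated against C3–C16 alkan-2-ones of known Log P by retention-time linear interpolation; multiple values within a method separated by "+".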
row,Structure (SMILES),LogP
1,N#Cc1cncn1CC(O)(c1cc(Cl)cc(Cl)c1F)C1(F)CC1 (centres unmarked) [I-572],2.66^[a]
2,CC(O)(Cn1cncc1F)c1ccc(Oc2ccc(Cl)cc2)cc1Cl (centres unmarked) [I-194],2.34^[a]
3,N#Cc1cncn1CC(O)(c1ccc(Br)cc1Cl)C1CC1 (centres unmarked) [I-420],2.88^[a]
4,N#Cc1cncn1CC(O)c1ccc(Oc2ccc(I)cc2)cc1Cl (centres unmarked) [I-95],3.44^[a]
5,CC(O)(Cn1cncc1Cl)c1ccc(Oc2ccc(Br)cc2)cc1C(F)(F)F (centres unmarked) [I-169],2.90^[a]
6,COC(Cn1cncc1Cl)c1ccc(Oc2ccc(Br)cc2)cc1Br (centres unmarked) [I-52],3.76^[a]
7,N#Cc1cncn1CC(O)(c1cc(Cl)c(F)cc1Cl)C1(F)CC1 (centres unmarked) [I-575],2.54^[a]
8,N#Cc1cncn1CC(O)(c1cc(F)c(Cl)cc1F)C1(Cl)CC1 (centres unmarked) [I-583],2.66^[a]
9,COc1ccc(C#CC(O)(Cn2cncc2C#N)C2(Cl)CC2)cc1 (centres unmarked) [I-321],2.51^[a]
10,N#Cc1cncn1CC(O)(CC1CC1)c1cc(Cl)cc(Cl)c1 (centres unmarked) [I-503],2.28^[a]
11,N#Cc1cncn1CC(O)c1ccc(Oc2ccc(C(F)(F)F)cc2)nc1 (centres unmarked) [I-129],2.55^[a]
12,CC(O)(Cn1cncc1Cl)c1cnc(Oc2ccc(Cl)cc2)cc1C(F)(F)F (centres unmarked) [I-175],2.62^[a]
13,CC(O)(Cn1cncc1C#N)c1cnc(Oc2ccc(Cl)nc2)cc1C(F)(F)F (centres unmarked) [I-360],2.43^[a]
14,N#Cc1cncn1CC(O)c1ccc(Oc2ccc(S(F)(F)(F)(F)F)cc2)nc1Cl (centres unmarked) [I-68],3.15^[a]
15,N#Cc1cncn1CC(O)c1ccc(C(F)(F)F)cc1 (centres unmarked) [I-141],1.90^[a]
16,N#Cc1cncn1CC(O)(CC1CC1)c1cc(Cl)c(F)c(Cl)c1 (centres unmarked) [I-493],2.95^[a]
17,N#Cc1cncn1CC(O)(c1ccc(Cl)nc1F)C1(Cl)CC1 (centres unmarked) [I-554],2.15^[a]
18,N#Cc1cncn1CC(O)(c1ccc(F)c(Cl)c1Cl)C1(Cl)CC1 (centres unmarked) [I-618],2.58^[a]
19,OC(Cn1cncc1Br)c1ccc(Oc2ccc(Br)cc2)cc1Br (centres unmarked) [I-44],2.78^[a]
20,N#Cc1cncn1CC(O)(CC1CC1)c1ccc(Cl)cc1C(F)(F)F (centres unmarked) [I-460],3.10^[a]
21,CC(O)(Cn1cncc1Br)c1ccc(Oc2ccc(Cl)cc2)cc1Br (centres unmarked) [I-170],2.80^[a]
22,CCCC(O)(Cn1cncc1C#N)c1ccc(Cl)cc1 (centres unmarked) [I-289],2.39^[a]

row,Structure (SMILES),LogP
1,CC(O)(Cn1cncc1C#N)c1cnc(Oc2ccc(Br)cc2)cc1C(F)F (centres unmarked) [I-258],2.68^[a]
2,CC(C)C(O)(Cn1cncc1C#N)c1ccc(Cl)cc1 (centres unmarked) [I-288],2.31^[a]
3,N#Cc1cncn1CC(O)(c1ccc(F)cc1F)C1CCCC1 (centres unmarked) [I-478],2.78^[a]
4,N#Cc1cncn1CC(O)(CC1CC1)c1ccc(Cl)c(Br)c1 (centres unmarked) [I-533],2.86^[a]
5,N#Cc1cncn1CC(O)(c1cc(F)c(Cl)cc1Cl)C1(F)CC1 (centres unmarked) [I-578],2.59^[a]
6,N#Cc1cncn1CC(O)(c1ccc(F)cc1Br)C1CC1 (centres unmarked) [I-398],2.46^[a]
7,N#Cc1cncn1CC(O)(CCC1CCCC1)C1(F)CC1 (centres unmarked) [I-598],3.00^[a]
8,CC(O)(Cn1cncc1Cl)c1ccc(Oc2ccc(Cl)nc2)cc1Cl (centres unmarked) [I-176],2.13^[a]
9,CCOC(Cn1cncc1Br)c1ccc(Oc2ccc(Cl)cc2)cc1Br (centres unmarked) [I-56],3.99^[a]
10,CCCC(O)(Cn1cncc1C#N)c1ccc(F)cc1Cl (centres unmarked) [I-402],2.73^[a]
11,N#Cc1cncn1CC(O)(C#CC1CC1)C1(F)CC1 (centres unmarked) [I-693],1.74^[a]
12,OC(Cn1cncc1Br)c1ccc(Oc2ccc(Cl)cc2)cc1 (centres unmarked) [I-18],2.23^[a]
13,N#Cc1cncn1CC(O)(c1cc(F)c(F)cc1Cl)C1(Cl)CC1 (centres unmarked) [I-584],2.49^[a]
14,N#Cc1cncn1CC(O)(c1c(F)cccc1Cl)C1(F)CC1 (centres unmarked) [I-434],2.08^[a]
15,N#Cc1cncn1CC(O)(CC1CC1)c1cc(F)c(F)c(Br)c1 (centres unmarked) [I-494],2.74^[a]
16,N#Cc1cncn1CC(O)c1cnc(Oc2ccc(Cl)cc2F)cc1C(F)(F)F (centres unmarked) [I-114],3.13^[a]
17,CC(O)(Cn1cncc1Br)c1ccc(Oc2ccc(Br)cc2)cc1Cl (centres unmarked) [1-174],2.96^[a]
18,COC(Cn1cncc1Br)c1ccc(Oc2ccc(Br)cc2)cc1Br (centres unmarked) [I-51],3.72^[a]
19,N#Cc1cncn1CC(O)c1ccc(Oc2ccccc2)cc1F (centres unmarked) [I-99],2.54^[a]
20,CC(C)(C)C#Cc1ccc(C(O)(Cn2cncc2C#N)C2(Cl)CC2)c(Cl)c1 (centres unmarked) [I-657],3.99^[a]
21,N#Cc1cncn1CC(O)c1cnc(Oc2ccc(C(F)F)cc2)cc1C(F)(F)F (centres unmarked) [I-115],2.80^[a]

# Same assay, conditions: reversed phase HPLC column; method [a], HPLC on reversed phase columns
row,Structure (SMILES),chromatographic logP
1,"N#Cc1cncn1CC(O)(C=CC1CCCCC1)C1(Cl)CC1 (centres unmarked) [I-663, 1-[2-(1-chlorocyclopropyl)-4-cyclohexyl-2-hydroxybut-3-en-1-yl]-1H-imidazole-5-carbonitrile]",3.48

# Same assay, conditions: reversed phase HPLC column; method [a]: LC-UV, acidic range, 0.1% formic acid in water and acetonitrile as eluent (linear gradient from 10% to 95% acetonitrile)
row,Structure (SMILES),chromatographic logP
1,N#Cc1cncn1CC(=O)c1ccccc1 [IX-101],1.55
2,N#Cc1cncn1CC(=O)c1ccc(Cl)s1 [IX-125],1.88
3,O=C(Cn1cncc1Cl)c1ccc(Oc2ccc(OC(F)(F)F)cc2)c(Br)c1 [IX-10],3.41

# Source: patent US20200031778A1, “NOVEL 5-SUBSTITUTED IMIDAZOLYLMETHYL DERIVATIVES” (Bayer CropScience Aktiengesellschaft, priority 2016, published 2020)
